Test results reported in the supplement of paper PMC13380429.

Experiments:
Settings in all cases: 72 h
Calu-3 [1] = assay: drug sensitivity score (DSS) for viability; higher = more toxic; extreme values may be limits of the assay
HepG2 [2] = assay: as above
Vero E6 [3] = assay: as above
U2OS [4] = assay: as above
Caco-2 [5] = assay: as above
Calu-3 [6] = assay: relative viability EC50 (midpoint between 100% and the lowest measured viability); higher = less toxic
HepG2 [7] = assay: as above
Vero E6 [8] = assay: as above
U2OS [9] = assay: as above
Caco-2 [10] = assay: as above
Calu-3 [11] = assay: cell viability relative to DMSO; higher = less toxic
HepG2 [12] = assay: as above
Vero E6 [13] = assay: as above
U2OS [14] = assay: as above
Caco-2 [15] = assay: as above

Compound | drug sensitivity score (Calu-3 [1]) | drug sensitivity score (HepG2 [2]) | drug sensitivity score (Vero E6 [3]) | drug sensitivity score (U2OS [4]) | drug sensitivity score (Caco-2 [5]) | relative viability EC50 (Calu-3 [6]) [µM] | relative viability EC50 (HepG2 [7]) [µM] | relative viability EC50 (Vero E6 [8]) [µM] | relative viability EC50 (U2OS [9]) [µM] | relative viability EC50 (Caco-2 [10]) [µM] | cell viability (Calu-3 [11]; 1 nM) [%] | cell viability (Calu-3 [11]; 10 nM) [%] | cell viability (Calu-3 [11]; 100 nM) [%] | cell viability (Calu-3 [11]; 1000 nM) [%] | cell viability (Calu-3 [11]; 10000 nM) [%] | cell viability (HepG2 [12]; 1 nM) [%] | cell viability (HepG2 [12]; 10 nM) [%] | cell viability (HepG2 [12]; 100 nM) [%] | cell viability (HepG2 [12]; 1000 nM) [%] | cell viability (HepG2 [12]; 10000 nM) [%] | cell viability (Vero E6 [13]; 1 nM) [%] | cell viability (Vero E6 [13]; 10 nM) [%] | cell viability (Vero E6 [13]; 100 nM) [%] | cell viability (Vero E6 [13]; 1000 nM) [%] | cell viability (Vero E6 [13]; 10000 nM) [%] | cell viability (U2OS [14]; 1 nM) [%] | cell viability (U2OS [14]; 10 nM) [%] | cell viability (U2OS [14]; 100 nM) [%] | cell viability (U2OS [14]; 1000 nM) [%] | cell viability (U2OS [14]; 10000 nM) [%] | cell viability (Caco-2 [15]; 1 nM) [%] | cell viability (Caco-2 [15]; 10 nM) [%] | cell viability (Caco-2 [15]; 100 nM) [%] | cell viability (Caco-2 [15]; 1000 nM) [%] | cell viability (Caco-2 [15]; 10000 nM) [%]
CC(C)(C)C(=O)/C(=N/c1ccc(Cl)cc1)NNc1ccc(Cl)cc1 | 0 | 0 | 0 | 0 | 0 | > 10 | > 10 | > 10 | > 10 | > 10 | 97.8 | 107 | 98.8 | 98.6 | 102 | 105 | 95 | 95.5 | 95.3 | 97.6 | 97.5 | 99.3 | 102 | 97.2 | 107 | 96.7 | 107 | 102 | 103 | 94 | 82.3 | 91.6 | 91.4 | 96.6 | 83.9
CC(C)NC(=O)c1ccc(C#Cc2ccncc2)cn1 | 0 | 0 | 0 | 0 | 0 | > 10 | > 10 | > 10 | > 10 | > 10 | 90.1 | 95.8 | 99.9 | 99 | 114 | 104 | 102 | 98.1 | 96.7 | 98.1 | 100 | 96.1 | 92.2 | 94.5 | 101 | 95.1 | 98.3 | 97.1 | 104 | 102 | 101 | 90.3 | 99.1 | 92.4 | 95.4
COc1cc(C(=O)NCC2(N(C)C)CCCC2)cc(OC)c1OCc1ccccc1 | 0.1 | 0.3 | 0 | 0 | 0 | > 10 | > 10 | > 10 | > 10 | > 10 | 94.3 | 92.1 | 96.7 | 103 | 85.8 | 97.3 | 106 | 101 | 88.8 | 89.6 | 104 | 99.9 | 107 | 99.4 | 95.8 | 100 | 104 | 97 | 104 | 95.9 | 95.5 | 98.1 | 103 | 97.3 | 93.5
C[C@H](NC[C@H](O)CP(=O)(O)Cc1ccccc1)c1ccc(Cl)c(Cl)c1 | 0 | 0 | 0 | 0 | 0 | > 10 | > 10 | > 10 | > 10 | > 10 | 102 | 107 | 95.3 | 100 | 106 | 96.9 | 92.4 | 94.8 | 80.1 | 95 | 99.4 | 96.8 | 98.1 | 94.8 | 98.1 | 96.5 | 101 | 94.6 | 97.9 | 94.3 | 104 | 100 | 95.9 | 99.5 | 89.8
Cc1nc2ccc(NC(=O)Nc3ccnc4cccnc34)cc2o1 | 0 | 0.8 | 0 | 0 | 1.6 | > 10 | > 10 | > 10 | > 10 | > 10 | 102 | 103 | 94.5 | 92.7 | 90.3 | 98.9 | 102 | 94.7 | 92.8 | 80.7 | 97.6 | 98.8 | 90.9 | 102 | 93.2 | 101 | 93 | 99.3 | 96.4 | 96.4 | 94.9 | 92.2 | 98 | 89.6 | 76.1
Nc1nc2c(cnn2CCc2ccccc2)c2nc(-c3ccco3)nn12 | 0 | 14.9 | 0 | 0 | 4.1 | > 10 | 0.354 | > 10 | > 10 |  | 88.2 | 100 | 95.7 | 113 | 90.7 | 97.7 | 101 | 90.9 | 25.5 | 12.7 | 107 | 99.8 | 98.2 | 99.6 | 96.1 | 98 | 99.8 | 92.7 | 98.6 | 100 | 96.7 | 104 | 93.5 | 78.3 | 67.5
